Measurements: patent US12416052B2, “Capturing, concentrating, and detecting microbes in a sample using magnetic ionic liquids and recombinase polymerase amplification” (priority 2019, dated 2025)
Where two headings read alike, the source gives them in different places.

Columns and labels:
[1] = test system: Salmonella enterica subsp. enterica ser. Typhimurium ATCC 14028; assay type: cell-based; set-up: key to Relative Affinity for MIL: +++++: higher losses during wash step are due to lower cellular affinity for the MIL; ++++: higher losses during wash step are due to lower cellular affinity for the MIL; +++: higher losses during wash step are due to lower cellular affinity for the MIL; ++: higher losses during wash step are due to lower cellular affinity for the MIL; +: higher losses during wash step are due to lower cellular affinity for the MIL
Method: (§1) A universal schematic for MIL-based cell extraction is depicted in FIG. 7B. A 1 mL volume of diluted cell suspension was added to a flat-bottomed 4-mL screw cap glass vial. Fifteen microliters of either the Ni(II) or Dy(III) MIL was added and dispersed into microdroplets by vortex agitation for 30 s. The aqueous phase was decanted following dispersive extraction, and the MIL was subjected to a brief wash step using 1 mL of nuclease-free water (Integrated DNA Technologies, Coralville, IA, USA) to ensure adequate removal of loosely or incidentally bound cells. After washing, release of viable cells from the MIL extraction phase was carried out using a “back-extraction” step accomplished through addition of 1 mL of an ionically-rich nutritive medium comprised of 20 g L^−1 tryptone and 10 g L^−1 NaCl, followed by a 120 s vortex step. After back-extraction, aliquots of the cell-enriched back-extraction medium were enumerated using the track dilution method using 100×100 mm square, gridded TSA, BSA, CA or VRBGA plates.
(§2) Following back-extraction, aliquots of the cell-enriched back-extraction medium were serially diluted in 0.1% peptone water and a 10 μL aliquot of each dilution was applied to a separate lane on square plates containing an appropriate agar medium. The plates were then tilted at an approximately 80° angle for 15 min to allow the droplets to travel toward the opposite end of the plate. The plates were incubated for 24 h at 37° C. (TSA, VRBGA), for 48 h at 37° C. (BSA) or for 24 h at 37° C. (CA). Colonies were counted and colony forming units (CFU) were determined. The enrichment factor (EF) for MIL-based extraction was calculated using Equation 1, where CMIL represents the concentration of bacteria in suspension following extraction using the MIL and CS is the initial concentration of bacteria in the sample.
Because culture-based methods depend on sample preparation steps that preserve bacterial viability, potential deleterious cytotoxic effects imparted by MIL extractants must be considered. To begin our further study of MIL-bacterial interactions, we selected S. typhimurium ATCC 14028 as a model gram-negative pathogen and the Ni(II) MIL as extractant.

[2] = test system: E. coli O157:H7 N192-6-1; assay: MIL-based whole-cell extraction; set-up: species or system Escherichia coli; details: 1×10^6 CFU mL^−1 in TSB, 15 μL MIL
Method: as §1, §2
(§3) In order to explore the broader utility of our approach, evaluation of additional cell types is needed. We began this extended evaluation of the Ni(II) MIL with seven representative DNA subgroups of Salmonella and eight strains of E. coli O157:H7. Briefly, a 1 mL aliquot of TSB was inoculated with 1×10^6 CFU mL^−1 of bacteria, and spiked with 15 μL of the Ni(II) MIL. MIL-based extraction was performed and 10 μL aliquots of the back-extraction solution were enumerated using TSA and BSA plates (Salmonella) or TSA plates (E. coli O157:H7). […] We later determined that VRBGA was a suitable common medium for this purpose and used this in our statistical analysis. Average CFU counts were compared to standards that were not exposed to the Ni(II) MIL. Enrichment factors were calculated for Salmonella on both non-selective (TSA) and selective agars (BSA) and for E. coli O157:H7 on non-selective agar (TSA). […] Note: As BSA is a Salmonella-specific agar E. coli O157:H7 was not plated to BSA in this example.

[3] = test system: E. coli O157:H7 N317-3-1; assay: MIL-based whole-cell extraction; set-up: species or system Escherichia coli; details: 1×10^6 CFU mL^−1 in TSB, 15 μL MIL
Method: as §1, §2, §3

[4] = test system: E. coli O157:H7 N366-2-2; assay: MIL-based whole-cell extraction; set-up: species or system Escherichia coli; details: 1×10^6 CFU mL^−1 in TSB, 15 μL MIL
Method: as §1, §2, §3

[5] = test system: E. coli O157:H7 N405-5-8; assay: MIL-based whole-cell extraction; set-up: species or system Escherichia coli; details: 1×10^6 CFU mL^−1 in TSB, 15 μL MIL
Method: as §1, §2, §3

[6] = test system: E. coli O157:H7 N549-3-1; assay: MIL-based whole-cell extraction; set-up: species or system Escherichia coli; details: 1×10^6 CFU mL^−1 in TSB, 15 μL MIL
Method: as §1, §2, §3

[7] = test system: E. coli O157:H7 N886-71; assay: MIL-based whole-cell extraction; set-up: species or system Escherichia coli; details: 1×10^6 CFU mL^−1 in TSB, 15 μL MIL
Method: as §1, §2, §3

[8] = test system: P. carotovorum pv. carotovorum; assay: MIL-based whole-cell extraction; set-up: species or system Pectobacterium carotovorum; details: EF determined using Columbia Agar
Method: A universal schematic for MIL-based cell extraction is depicted in FIG. 7B. A 1 mL volume of diluted cell suspension was added to a flat-bottomed 4-mL screw cap glass vial. Fifteen microliters of either the Ni(II) or Dy(III) MIL was added and dispersed into microdroplets by vortex agitation for 30 s. The aqueous phase was decanted following dispersive extraction, and the MIL was subjected to a brief wash step using 1 mL of nuclease-free water (Integrated DNA Technologies, Coralville, IA, USA) to ensure adequate removal of loosely or incidentally bound cells. […]
Following back-extraction, aliquots of the cell-enriched back-extraction medium were serially diluted in 0.1% peptone water and a 10 μL aliquot of each dilution was applied to a separate lane on square plates containing an appropriate agar medium. […] Colonies were counted and colony forming units (CFU) were determined. The enrichment factor (EF) for MIL-based extraction was calculated using Equation 1, where CMIL represents the concentration of bacteria in suspension following extraction using the MIL and CS is the initial concentration of bacteria in the sample.

[9] = test system: E. coli O157:H7; assay type: cell-based, Escherichia coli; details: no significant differences (p-value=0.4491)
Method: The following statistical analysis was performed in SAS 9.4. Four master suspensions of bacteria were prepared for four Salmonella enterica serovars: subsp. typhimurium, subsp. arizonae, subsp. diarizonae and subsp. houtenae. Two master suspensions were made for the remaining three Salmonella serovars or species: S. enterica subsp. indica, subsp. salamae and S. bongori. For E. coli O157:H7, two master suspensions of bacteria were prepared for each of the eight strains studied. For all bacteria tested, two replicate extractions from the same master suspension were performed, using the 10-3 dilution. Following MIL-based capture, back-extraction solutions were plated to non-selective agar (TSA) and selective agar (BSA) for Salmonella and SMAC for E. coli. To identify whether significant differences existed for the capture of Salmonella and E. coli O157:H7, we applied a linear mixed model for the response variable (enrichment factor) with log transformation in order to reduce skewness. […]
In order to explore the broader utility of our approach, evaluation of additional cell types is needed. […] We later determined that VRBGA was a suitable common medium for this purpose and used this in our statistical analysis. […] Enrichment factors were calculated for Salmonella on both non-selective (TSA) and selective agars (BSA) and for E. coli O157:H7 on non-selective agar (TSA). […]

[10] = Table 3, 1×10^5 CFU mL^−1 in TSB, 15 μL MIL
[11] = Table 4, 1×10^6 CFU mL^−1 in TSB, 15 μL MIL
[12] = average over exposure times 0-15 min (n=4)
[13] = exposure time 0 min, 1×10^5 CFU mL^−1 in TSB, 15 μL MIL

## CCCCCCCCCCCCCC[P+](CCCCCC)(CCCCCC)CCCCCC.O=C([CH-]C(=O)C(F)(F)F)C(F)(F)F.O=C([CH-]C(=O)C(F)(F)F)C(F)(F)F.O=C([CH-]C(=O)C(F)(F)F)C(F)(F)F.[Ni+2] [Ni(II) MIL, [P66614^+][Ni(hfacac)3^−]]
[1]
  Relative Affinity for MIL: ++++
[1]; Example 2, 2×T, 1×NaCl back-extraction medium
  enrichment factors: approximately 12
[1]; [10]
  Enrichment Factor (BSA): 14
  Enrichment Factor (TSA): 10
[1]; [11]
  Enrichment Factor (BSA): 6
  Enrichment Factor (TSA): 8
[1]; [12]
  average EF value (BSA): 8.2±1.0
  average EF value (TSA): 7.2±0.6
[1]; cells lost to wash solution
  Percent-Loss: 53 ± 3%
[1]; [13]
  Enrichment Factor (BSA): 7
  Enrichment Factor (TSA): 8
[1]; exposure time 5 min
  Enrichment Factor (BSA): 8
  Enrichment Factor (TSA): 7
[1]; exposure time 10 min
  Enrichment Factor (BSA): 8
  Enrichment Factor (TSA): 6
[1]; exposure time 15 min
  Enrichment Factor (BSA): 9
  Enrichment Factor (TSA): 8
[2]
  Enrichment Factor (TSA): 9
[3]
  Enrichment Factor (TSA): 4
[4]
  Enrichment Factor (TSA): 4
[5]
  Enrichment Factor (TSA): 2
[6]
  Enrichment Factor (TSA): 8
[7]
  Enrichment Factor (TSA): 4
[8]
  Enrichment Factor: 24
[9]
  MIL-conferred injury: recovery on TSA vs VRBGA: no injury could be detected
